Data taken from patent US10774085B2, “Method of treatment using substituted pyrazolo[1,5-A] pyrimidine compounds” (Array BioPharma Inc., priority 2008, dated 2020).

Target: histidine-tagged recombinant human TrkA, cytoplasmic domain (Homo sapiens (Human), UniProt P04629)
Experiment: TrkA ELISA Assay
Format: biochemical
Conditions: 2.5 nM TrkA, 500 μM ATP; read-out: TrkA Elisa Enzyme IC50
Protocol: An enzyme-linked immunosorbant assay (ELISA) was used to assess TrkA kinase activity in the presence of inhibitors. Immulon 4HBX 384-well microtiter plates (Thermo part #8755) were coated with a 0.025 mg/mL solution of poly (Glu, Ala, Tyr; 6:3:1; Sigma P3899). Various concentrations of test compound, 2.5 nM TrkA (Invitrogen Corp., histidine-tagged recombinant human TrkA, cytoplasmic domain), and 500 μM ATP were incubated for 25 minutes at ambient temperature in the coated plates while shaking. The assay buffer consisted of 25 mM MOPS pH 7.5, 0.005% (v/v) Triton X-100 and 5 mM MgCl2. The reaction mixture was removed from the plate by washing with PBS containing 0.1% (v/v) Tween 20. The phosphorylated reaction product was detected using 0.2 μg/mL of a phosphotyrosine specific monoclonal antibody (clone PY20) conjugated to horseradish peroxidase in conjunction with the TMB Peroxidase Substrate System (KPL). After the addition of 1M phosphoric acid, the chromogenic substrate color intensity was quantitated via absorbance at 450 nm. IC50 values were calculated using either a 4 or 5-parameter logistic curve fit.

Sequence of histidine-tagged recombinant human TrkA, cytoplasmic domain (P04629 440-796): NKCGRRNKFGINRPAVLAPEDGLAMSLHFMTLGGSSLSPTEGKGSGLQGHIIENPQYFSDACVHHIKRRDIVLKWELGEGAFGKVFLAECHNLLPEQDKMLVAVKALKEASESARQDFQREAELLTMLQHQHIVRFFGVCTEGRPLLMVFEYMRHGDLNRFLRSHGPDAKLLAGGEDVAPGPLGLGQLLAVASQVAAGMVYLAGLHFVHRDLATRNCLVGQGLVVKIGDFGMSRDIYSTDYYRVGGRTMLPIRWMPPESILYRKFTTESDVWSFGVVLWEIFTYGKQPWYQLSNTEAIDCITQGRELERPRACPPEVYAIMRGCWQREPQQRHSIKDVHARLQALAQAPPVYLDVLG

COc1ccc(F)cc1[C@H]1CCCN1c1ccn2ncc(NC(=O)N3CCC[C@H](O)C3)c2n1 [Example 91, (S)—N-(5-((R)-2-(5-fluoro-2-methoxyphenyl)pyrrolidin-1-yl)pyrazolo[1,5-a]pyrimidin-3-yl)-3-hydroxypiperidine-1-carboxamide]
IC50: 0.0102 µM
